Source: patent US20230373972A1, “PIPERAZINE DERIVATIVE, PREPARATION METHOD THEREFOR AND USE THEREOF” (Zhejiang Hisun Pharmaceutical Co., Ltd., priority 2020, published 2023)
Where two headings read alike, the source gives them in different places.

Test: Pharmacokinetics in ICR mouse
Assay type: in vivo
Conditions: male, plasma; for AUC(0-t): read-out: Curve area AUC0-t; for half-life: read-out: Half-life period T1/2(h) (converted)
Description: Taking an ICR mouse as a tested animal, the ICR mouse was administrated with the compound in Example 96 of the present invention by intravenous injection and intragastric administration, and drug concentrations in plasma at different times were determined by a LC/MS/MS method to study pharmacokinetic characteristics of the compound of the present invention in the mouse.
ICR mice, male, 29.2 g to 34.9 g, purchased from Beijing Vital River Laboratory Animal Technology Co., Ltd.
Preparation of drug administrated by intravenous injection: a proper amount of compound to be tested was added to a proper amount of DMAC: (30% Soltol HS 15): Saline=10%: 10%: 80% (v/v/v), and shaken in a vortex manner, so as to prepare a final solution with a concentration of 0.2 mg/mL.
Preparation of drug administrated by intragastric administration: a proper amount of compound to be tested was added to a proper amount of DMA: (30% Soltol HS 15): Saline=10%: 10%: 80% (v/v/v), and shaken in a vortex manner, so as to prepare a final solution with a concentration of 0.5 mg/mL.
ICR mice were divided into an intravenous injection group and an intragastric administration group (9 rats in single group).
Intravenous injection group: the drug was administrated by intravenous injection (according to a dosage of 1 mg/kg and a volume of 5 mL/kg) without fasting.
Intragastric administration group: the drug was administrated by intragastric administration (according to a dosage of 5 mg/kg and a volume of 10 mL/kg) after fasting overnight, and food was taken 4 hours after administration.
Intravenous injection group: about 80 μL of blood was collected into an EDTA-K2 anticoagulant tube through an orbit 0.083 hour, 0.25 hour, 0.5 hour, 1 hour, 2 hours, 4 hours, 8 hours, 12 hours and 24 hours after administration.
Intragastric administration group: about 80 μL of blood was collected through an orbit 0.25 hour, 0.5 hour, 1 hour, 2 hours, 4 hours, 8 hours, 12 hours and 24 hours before and after administration.
The whole blood sample was placed in an EDTA-K2 anticoagulant tube. Plasma was centrifugally separated (centrifugation conditions: 1,500 g, 10 minutes). The collected upper plasma was stored al −40° C. to −20° C. before analysis.
Contents of the compound to be tested in mouse plasma after intravenous and intragastric administration were determined by LC-MS/MS.

[1] = iv, injection administration 1 mg/kg
[2] = po, intragastric administration 5 mg/kg

`COCC[C@@H](C(=O)Nc1ccc2nn(C)cc2c1)N1CC(=O)N(c2cc(Cl)ccc2-n2cc(Cl)nn2)CC1=O` [Example 96, (S)-2-(4-(5-chloro-2-(4-chloro-1H-1,2,3-triazol-1-yl)phenyl)-2,5-dioxopiperazin-1-yl)-4-methoxy-N-(2-methyl-2H-indazol-5-yl)butanamide] gave an AUC(0-t) [1] of 1240 ng·h/mL, a half-life [1] of 0.664 h and a bioavailability (po, intragastric 5 mg/kg vs injection 1 mg/kg, read-out: Bioavailability F(%)) of 69.8%. For the same molecule, the Cmax (po, intragastric administration 5 mg/kg, read-out: Blood concentration Cmax) was 2040 ng/mL, the AUC(0-t) [2] was 4330 ng·h/mL and the half-life [2] was 1.84 h.
